Measured values as given in PubChem BioAssay (NCI).
“And” between values parts separate entries of the source, which are not always exact repeats. Equal entries are not always repeated.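 Following 48 hours of exposure in 96-well plates, responses at five concentrations were used to interpolate endpoints linearly. Here, GI50 denotes the concentration required for 50% inhibition of growth. TGI is the concentration that stops growth completely.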

How the values were obtained:
Test in all cases: DTP human tumour cell line panel, 48 h
A498 renal = tested on: A498 renal
DU-145 prostate = tested on: DU-145 prostate
KM12 colon = tested on: KM12 colon
LOX IMVI melanoma = tested on: LOX IMVI melanoma
OVCAR-4 ovarian = tested on: OVCAR-4 ovarian
OVCAR-8 ovarian = tested on: OVCAR-8 ovarian
RPMI-8226 leukemia = tested on: RPMI-8226 leukemia
SF-539 CNS = tested on: SF-539 CNS
SK-MEL-28 melanoma = tested on: SK-MEL-28 melanoma
UACC-257 melanoma = tested on: UACC-257 melanoma

SMILES	GI50 (A498 renal) [µM]	TGI (A498 renal)	GI50 (DU-145 prostate) [µM]	TGI (DU-145 prostate) [µM]	GI50 (KM12 colon)	TGI (KM12 colon)	GI50 (LOX IMVI melanoma)	TGI (LOX IMVI melanoma)	GI50 (OVCAR-4 ovarian) [µM]	TGI (OVCAR-4 ovarian)	GI50 (OVCAR-8 ovarian)	TGI (OVCAR-8 ovarian)	GI50 (RPMI-8226 leukemia)	TGI (RPMI-8226 leukemia)	GI50 (SF-539 CNS)	TGI (SF-539 CNS)	GI50 (SK-MEL-28 melanoma)	TGI (SK-MEL-28 melanoma)	GI50 (UACC-257 melanoma)	TGI (UACC-257 melanoma)
COCC1(CO)C(=O)C2CCN1CC2 (stereo not drawn)	23	63.9 µM	17.7	32.3	> 100 µM	> 100 µM	18.2 µM	37.2 µM	16.9	40.4 µM	34.6 µM	> 80.3 µM	23.8 µM	64.3 µM	> 40.7 µM	> 55.7 µM	14.5 µM	28.6 µM	17.7 µM	34 µM
NC(=O)c1cc(S(=O)(=O)Nc2nnc(-c3ccccc3)c(-c3ccccc3)n2)c(SCc2ccccc2)cc1Cl	> 88.6	> 100 µM	> 100	> 100	> 62.6 µM	> 100 µM	> 82.3 µM	> 100 µM	–	> 64.6 µM	> 50.3 µM	> 77.5 µM	> 44.1 µM	> 65.1 µM	> 44.3 µM	> 63.9 µM	–	> 100 µM	> 48.2 µM	> 89.9 µM
CC[C@H]1CN2CCc3cc(OC)c(OC)cc3[C@@H]2C[C@@H]1C[C@H]1NCCc2c1[nH]c1ccc(O)cc21	0.191	0.136 µM and 0.507 µM and 0.223 µM	0.0249	0.0584	0.0507 µM and 0.0994 µM	0.283 µM and 1.37 µM and 0.519 µM	0.00434 µM and 0.0207 µM	0.0223 µM and 0.0902 µM and < 0.0107 µM	0.0138	0.0443 µM and 0.0436 µM and < 0.0124 µM	0.0323 µM and 0.0377 µM	–	0.0272 µM and 0.0305 µM	–	0.0211 µM and 0.0232 µM	0.0476 µM and 0.0513 µM and 0.0408 µM	0.0316 µM and 0.0425 µM	0.0813 µM and 0.256 µM and 0.41 µM	0.223 µM and 0.212 µM	0.666 µM and 0.69 µM and 0.643 µM
OCCCNc1nccc(-c2c(-c3ccc(F)cc3)nn3cc(C(F)(F)F)ccc23)n1	12.8	> 25 µM	12.9	> 25	11.1 µM	> 25 µM	15.3 µM	> 25 µM	10.8	> 25 µM	16.9 µM	> 25 µM	22.9 µM	> 25 µM	> 25 µM	> 25 µM	15.9 µM	> 25 µM	> 23.4 µM	> 25 µM
O=C(CSC1CCc2ccccc21)N/N=C/c1ccccc1O (stereo not drawn)	14.7	44 µM	6.09	> 100	3.73 µM	23.7 µM	2.37 µM	21.5 µM	1.55	92.5 µM	3.66 µM	> 100 µM	7.47 µM	38.4 µM	3.03 µM	17.2 µM	4.72 µM	> 100 µM	–	–
COc1ccc(O)c(C(=O)c2ccc(C(=O)N[C@H]3CCCNC[C@@H]3NC(=O)c3ccncc3)cc2)c1F	0.331	3.26 µM	7.28	24.5	3.1 µM	> 16.5 µM	7.38 µM	> 25 µM	> 12.3	> 25 µM	5.5 µM	> 21.3 µM	10.3 µM	> 25 µM	0.624 µM	7.68 µM	> 18.4 µM	> 25 µM	> 25 µM	> 25 µM
C=C1C(=O)O[C@H]2[C@H]1CC/C(COC(=O)/C=C\C(=O)NCc1ccc(Cn3c(=O)sn(CCCC)c3=O)cc1)=C\CC[C@@]1(C)O[C@@H]21	1.18	2.44 µM	0.854	2.16	1.67 µM	3.8 µM	0.179 µM	0.379 µM	0.626	1.87 µM	0.828 µM	3.32 µM	0.274 µM	0.949 µM	1.18 µM	2.42 µM	1.41 µM	2.74 µM	1.38 µM	2.93 µM
Cc1[nH]c(/C=C2\C(=O)Nc3ccccc32)c(C)c1CCC(=O)O	21.4	61.7 µM and > 100 µM	35.4	> 100	7.79 µM	51.2 µM and > 100 µM	23.1 µM	75.9 µM and 89.2 µM	–	> 100 µM	34.7 µM	> 100 µM	–	65 µM and 75.3 µM	12.3 µM	42.2 µM	25.4 µM	80 µM and 92.6 µM	20.4 µM	63 µM and 81.1 µM
O=S(=O)(Nc1ccc(F)cc1F)c1ccc(-c2cnc(C3CC3)o2)cc1	0.223	2.08 µM	2.09	> 100	0.485 µM	28.5 µM	0.588 µM	22 µM	3.13	> 100 µM	1.57 µM	> 95.2 µM	0.828 µM	29.8 µM	0.674 µM	5.71 µM	13.1 µM	> 71.9 µM	10.3 µM	51.8 µM
NCCSc1nc(-c2ccccc2)c(-c2ccccc2)o1	–	> 100 µM	–	> 100	–	> 100 µM	–	> 100 µM	–	> 100 µM	–	> 100 µM	–	> 100 µM	–	> 100 µM	–	> 100 µM	–	> 100 µM
O=C(Nc1ccc(-n2ccc3c(NC(=O)c4ccccc4)nccc32)cc1)Nc1ccc(Cl)c(Cl)c1	2.58	7.58 µM	1.57	3.92	0.985 µM	2.5 µM	0.503 µM	2.28 µM	1.55	3.86 µM	1.26 µM	3.7 µM	0.482 µM	3.08 µM	0.557 µM	2.41 µM	1.49 µM	3.07 µM	1.96 µM	4.52 µM
c1ccc2nc3c(nc2c1)sc1ccccc13	–	78.2 µM	–	> 100	–	> 100 µM	–	> 100 µM	–	32.9 µM	–	–	–	> 100 µM	–	30.9 µM	–	> 100 µM	–	> 100 µM
Cc1nc2sc3c(c2c(=O)[nH]1)CCCC3	–	> 100 µM	–	> 100	–	> 100 µM	–	> 100 µM	–	> 100 µM	–	> 100 µM	–	> 100 µM	–	> 100 µM	–	> 100 µM	–	> 100 µM
CC(=O)Oc1ccccc1C(=O)Nc1ncc([N+](=O)[O-])s1	0.245	–	4.51	> 100	3 µM	–	2.74 µM	14.5 µM and > 100 µM	2.05	13.8 µM and > 100 µM	2.73 µM	25.1 µM and > 100 µM	0.677 µM	> 100 µM	2.9 µM	20.6 µM and > 100 µM	2.48 µM	15.2 µM and > 100 µM	2.16 µM	–
